Data reported in patent publication US20250277059A1, “ANTIBODY USED TO TREAT CORONAVIRUS INFECTION” (priority 2022, published 2025).

Experiments:
[1] = system: pseudo-typed virus having S protein of SARS COV_2 S 501Y.V2 (B.1.351: β variant); assay type: cell-based, SARS-COV-2
[2] = system: pseudo-typed virus having S protein of SARS COV_2 S VOC202012/01 (B.1.1.7: α variant); assay type: cell-based, SARS-COV-2

SMILES: N=C(N)c1ccc2cc(OC(=O)c3ccc(N=C(N)N)cc3)ccc2c1 [Nafamostat, nafamostat]
- infection inhibiting effect on β variant-type virus [1]: exhibited infection inhibiting effects
- infection inhibiting effect on α variant-type virus [2]: exhibited infection inhibiting effects
